From patent US20230212131A1, “COLLAGEN 1 TRANSLATION INHIBITORS AND METHODS OF USE THEREOF” (Anima Biotech Inc., priority 2020, published 2023)

Test system: collagen 1 (COL1)
Assay: WI-38 collagen 1 inhibition assay
Format: cell-based, human
Details: Cellular EC50, WI-38 cells; values are classes of LogEC50
Description: All compounds were profiled for cellular potency in inhibition of collagen 1 (COL1) protein translation using a phenotypic screening platform.
WI-38 cells (ATCC® CCL-75™) were maintained in MEM EAGLE (NEAA) W. GLUTAMIN (Biological Industries, Cat. 06-1040-15-1A) containing 10% fetal bovine serum (FBS) and 1% Penicillin-Streptomycin Solution. To synchronize the cells (cell cycle synchronization) prior to induction of collagen synthesis, the cells were starved using DMEM-low glucose supplemented with 0.25% FBS for two hours and then without FBS for 24 hours. To induce collagen synthesis, the cells were treated with a collagen induction cocktail for the indicated time. Compounds were added with induction.
Cells in 96-well or 384-well plates were fixed for 20 min in 4% paraformaldehyde (PFA, ENCO, Cat. sc-281692). Following two washes with 1×PBS, cells were treated with hydrogen peroxide (Acros, Cat: 7722-84-1) for 10 minutes and then washed twice with 1×PBS. Cells were then incubated over-night at 4° C. with Anti-Collagen I (Sigma-Aldrich, Cat: C 2456) antibody and washed three times with 1×PBS. Cells were then incubated with a suitable secondary fluorescently-tagged antibody and nuclei stained with DAPI, for 1 hour, and then washed 3 times with 1×PBS.
Cell images were taken with Operetta (Perkin Elmer, USA), a wide-field fluorescence microscope at 20× magnification. After acquisition, the images were transferred to Columbus software (Perkin-Elmer) for image analysis. In Columbus, cells were identified by their nucleus, using the “Find Nuceli” module and cytoplasm was detected based on the secondary antibody channel. Subsequently, the fluorescent signal was enumerated in the identified cell region. Data was exported to a data analysis and visualization software, Tibco Spotfire, USA.

Compound	COL1 Efficacy (LogEC50)
O=C(Nc1nc(-c2ccccc2Cl)cs1)c1ccc(N2CCC3(CC2)COC3)cn1 [Compound 448, N-(4-(2-chlorophenyl)thiazol-2-yl)-5-(2-oxa-7-azaspiro[3.5]nonan-7-yl)picolinamide]	+++ (+++: <−6)
O=C(Nc1nc(-c2ccccc2Cl)cs1)c1ccc(N2CCCC(O)C2)cn1 (stereo not shown) [compound 477, N-(4-(2-chlorophenyl)thiazol-2-yl)-5-(3-hydroxypiperidin-1-yl)picolinamide]	+++ (+++: <−6)
O=C(Nc1nc(-c2ccccc2Cl)cs1)c1ccc(N2CCC(CO)CC2)cn1 [compound 479, N-(4-(2-chlorophenyl)thiazol-2-yl)-5-(4-(hydroxymethyl)piperidin-1-yl)picolinamide]	+++ (+++: <−6)
Cc1cc(N2CCOCC2)ccc1C(=O)Nc1nc(-c2ccccc2Cl)cs1 [Compound 410, N-(4-(2-chlorophenyl)thiazol-2-yl)-2-methyl-4-morpholinobenzamide]	+++ (+++: <−6)
CC(=O)N1CCN(c2ccc(C(=O)Nc3nc(-c4ccccc4Cl)cs3)nc2)CC1 [compound 442, 5-(4-acetylpiperazin-1-yl)-N-(4-(2-chlorophenyl)thiazol-2-yl)picolinamide]	+++ (+++: <−6)
COc1cc(OC)cc(-c2csc(NC(=O)c3ccc(N4CCOCC4)cc3)n2)c1 [compound 353, N-[4-(3,5-dimethoxyphenyl)thiazol-2-yl]-4-morpholino-benzamide]	+++ (+++: <−6)
CC(=O)N1CCN(c2ccc(C(=O)Nc3nc(-c4ccccc4Cl)cs3)s2)CC1 [Compound 463, 5-(4-acetylpiperazin-1-yl)-N-(4-(2-chlorophenyl)thiazol-2-yl)thiophene-2-carboxamide]	+++ (+++: <−6)
Cc1ncccc1-c1csc(NC(=O)c2cnc(N3CCOCC3)cn2)n1 [compound 372, N-[4-(2-methyl-3-pyridyl)thiazol-2-yl]-5-morpholino-pyrazine-2-carboxamide]	+ (+: >−5)
Cc1ccc(C(=O)Nc2nc(-c3ccccc3Cl)cs2)cn1 [compound 318, N-[4-(2-chlorophenyl)thiazol-2-yl]-6-methyl-pyridine-3-carboxamide]	+++ (+++: <−6)
COc1cccc(-c2csc(NC(=O)c3ccc(N4CCOCC4)cc3)n2)c1 [compound 357, N-[4-(3-methoxyphenyl)thiazol-2-yl]-4-morpholino-benzamide]	+ (+: >−5)
Cc1ncccc1-c1csc(NC(=O)c2ccc(N3CCOCC3)nc2)n1 [compound 375, N-[4-(2-methyl-3-pyridyl)thiazol-2-yl]-6-morpholino-pyridine-3-carboxamide]	+ (+: >−5)
COc1ncc(C(=O)Nc2nc(-c3ccccc3Cl)cs2)cn1 [compound 345, N-[4-(2-chlorophenyl)thiazol-2-yl]-2-methoxy-pyrimidine-5-carboxamide]	+++ (+++: <−6)
COc1ncc(C(=O)Nc2nc(-c3cnccc3C)cs2)cn1 [compound 349, 2-methoxy-N-[4-(4-methyl-3-pyridyl)thiazol-2-yl]pyrimidine-5-carboxamide]	− (−: inactive)
NC1CCN(c2ccc(C(=O)Nc3nc(-c4ccccc4Cl)cs3)nc2)CC1 [compound 475, 5-(4-aminopiperidin-1-yl)-N-(4-(2-chlorophenyl)thiazol-2-yl)picolinamide]	+++ (+++: <−6)
CN(C)C(=O)c1ccc(C(=O)Nc2nc(-c3ccccc3Cl)cs2)cc1 [compound 389, N′-(4-(2-chlorophenyl)thiazol-2-yl)-N,N-dimethylterephthalamide]	++ (++: −5 to −6)
CNC1CCN(c2ccc(C(=O)Nc3nc(-c4ccccc4Cl)cs3)nc2)CC1 [compound 476]	− (−: inactive)
